From ChEMBL document CHEMBL1177695, “Discovery and development of natural product-derived chemotherapeutic agents based on a medicinal chemistry approach” (J Nat Prod, 2010)
pEC50, pIC50: −log10 of the molar value. In brackets after ≈: the same amount, converted by molar mass. Activity calls are given as the source filed them. No cut-off for these calls is given here.

Legend:
[1] = Therapeutic index, ratio of IC50 for human H9 cells to EC50 for multidrug-resistant HIV1 RTMDR1; type: cell-based; settings: read-out: TI
[2] = system: Human immunodeficiency virus 1; experiment: Antiviral activity against multidrug-resistant HIV1 RTMDR1 infected in H9 cells assessed as inhibition of viral replication by p24 antigen ELISA; type: functional, organism-based; settings: Human immunodeficiency virus 1, RTMDR1, H9
[3] = system: H9; experiment: Cytotoxicity against human H9 cells after 4 days by coulter counter; type: cell-based; settings: Homo sapiens, H9, 96 h
[4] = Therapeutic index, ratio of IC50 for human H9 cells to EC50 for HIV 3B; type: cell-based; settings: read-out: TI
[5] = system: Human immunodeficiency virus 1; experiment: Antiviral activity against HIV1 3B infected in H9 cells assessed as inhibition of viral replication by p24 antigen ELISA; type: functional, organism-based; settings: Human immunodeficiency virus 1, 3B, H9; read-out: EC50
[6] = system: Tubulin; experiment: Inhibition of tubulin polymerization
[7] = system: KB; experiment: Cytotoxicity against human KB cells; type: functional, cell-based
[8] = Cytotoxicity against vincristine-resistant human KB/VCR cells overexpressing P-glycoprotein; type: functional, cell-based
[9] = Cytotoxicity against human KB-7d cells expressing multidrug-resistant protein; type: functional, cell-based; settings: KB7D
[10] = Inhibition of tubulin polymerization
[11] = system: KB; experiment: Cytotoxicity against CPT-resistant human KB cells […] reduced level of topoisomerase; type: functional, cell-based
[12] = system: Human immunodeficiency virus 1; experiment: Antiviral activity against HIV1 infected in human H9 cells after 4 days by p24 antigen ELISA; type: functional, organism-based; settings: Human immunodeficiency virus 1, H9, 96 h
[13] = system: Human immunodeficiency virus 1; experiment: Anti-HIV-1 activity in human H9 cells; settings: H9, 96 h
[14] = system: ZR-75-1; experiment: Cytotoxicity against human ZR-75-1 cells after 72 hrs by sulforhodamine B assay; type: functional; settings: ZR-75-1, 72 h, read-out: ED50 (the source's name)
[15] = system: MCF7; experiment: Cytotoxicity against human MCF7 cells after 72 hrs by sulforhodamine B assay; type: functional; settings: MCF7, 72 h, read-out: ED50 (the source's name)
[16] = system: MDA-MB-231; experiment: Cytotoxicity against human MDA-MB-231 cells after 72 hrs by sulforhodamine B assay; type: functional; settings: MDA-MB-231, 72 h, read-out: ED50 (the source's name)
[17] = system: SK-BR-3; experiment: Cytotoxicity against human SK-BR-3 cells after 72 hrs by sulforhodamine B assay; type: functional; settings: SK-BR-3, 72 h, read-out: ED50 (the source's name)
[18] = system: Staphylococcus aureus; experiment: Antibacterial activity against Staphylococcus aureus; type: functional
[19] = system: Aspergillus niger; experiment: Antifungal activity against Aspergillus niger; type: functional
[20] = system: Escherichia coli; experiment: Antibacterial activity against Escherichia coli; type: functional
[21] = system: Pseudomonas fluorescens; experiment: Antibacterial activity against Pseudomonas fluorescens; type: functional
[22] = system: Aureobasidium pullulans; experiment: Antifungal activity against Aureobasidium pullulans; type: functional
[23] = system: Pseudomonas aeruginosa; experiment: Antibacterial activity against Pseudomonas aeruginosa; type: functional
[24] = system: A549; experiment: Cytotoxicity against human A549 cells; type: functional, cell-based; settings: Homo sapiens, A549
[25] = Therapeutic index, ratio of IC50 for human H9 cells to EC50 for HIV1; type: cell-based; settings: read-out: TI
[26] = Cytotoxicity against human KBVIN cells after 3 days by sulforhodamine B assay; type: functional, cell-based; settings: 72 h
[27] = system: A-431; experiment: Cytotoxicity against human A431 cells after 3 days by sulforhodamine B assay; type: functional, cell-based; settings: A-431, 72 h
[28] = system: A549; experiment: Cytotoxicity against human A549 cells after 3 days by sulforhodamine B assay; type: functional, cell-based; settings: A549, 72 h
[29] = system: PC-3; experiment: Cytotoxicity against human PC3 cells after 3 days by sulforhodamine B assay; type: functional, cell-based; settings: PC-3, 72 h
[30] = system: KB; experiment: Cytotoxicity against human KB cells after 3 days by sulforhodamine B assay; type: functional, cell-based; settings: 72 h
[31] = system: HCT-8; experiment: Cytotoxicity against human HCT8 cells after 3 days by sulforhodamine B assay; type: functional, cell-based; settings: HCT-8, 72 h
[32] = system: 1A9; experiment: Cytotoxicity against human 1A9 cells after 3 days by sulforhodamine B assay; type: functional, cell-based; settings: 1A9, 72 h
[33] = system: HUVEC; experiment: Cytotoxicity against HUVEC after 3 days by sulforhodamine B assay; type: cell-based; settings: Homo sapiens, 72 h
[34] = system: P388; experiment: Antitumor activity against mouse P388 cells allografted in mouse at 8 mg/kg relative to control; type: functional
[35] = system: MCF7; experiment: Cytotoxicity against human MCF7 cells; type: functional; settings: read-out: ED50 (the source's name)
[36] = system: ZR-75-1; experiment: Cytotoxicity against human ZR-75-1 cells; type: functional; settings: read-out: ED50 (the source's name)
[37] = system: SK-BR-3; experiment: Cytotoxicity against human SK-BR-3 cells overexpressing HER2; type: functional; settings: read-out: ED50 (the source's name)
[38] = system: Hep-2 (human); experiment: Cytotoxicity against human Hep-2 cells

## CC(C)c1cc(=O)c2ccc3c(c2o1)[C@@H](OC(=O)C12CCC(C)(C(=O)O1)C2(C)C)[C@@H](OC(=O)C12CCC(C)(C(=O)O1)C2(C)C)C(C)(C)O3 (some centres not stated)
[1]
  selectivity ratio: > 111
[2]
  pEC50: 6.85
[3]
  pIC50: 4.82
[4]
  selectivity ratio: 483
[5]
  pEC50: 7.15

## CCOCc1cc(=O)c2ccc3c(c2o1)[C@@H](OC(=O)C12CCC(C)(C(=O)O1)C2(C)C)[C@@H](OC(=O)C12CCC(C)(C(=O)O1)C2(C)C)C(C)(C)O3 (some centres not stated)
[1]
  selectivity ratio: 34
[2]
  pEC50: 6.43
[3]
  pIC50: 4.90
[4]
  selectivity ratio: 151
[5]
  pEC50: 7.00

## Cc1cnc2nc(-c3cccc4ccccc34)cc(O)c2c1
[6]
  pIC50: 6.26

## CCCc1cc(=O)c2ccc3c(c2o1)[C@@H](OC(=O)C12CCC(C)(C(=O)O1)C2(C)C)[C@@H](OC(=O)C12CCC(C)(C(=O)O1)C2(C)C)C(C)(C)O3 (some centres not stated)
[1]
  selectivity ratio: > 272
[2]
  pEC50: 6.85
[3]
  pIC50: < 4.42
[4]
  selectivity ratio: 1860
[5]
  pEC50: 7.70

## COc1ccc2c(c1)C(O)CCc1cc(OC)c(OC)c(OC)c1-2 (configuration not stated)
[7]
  EC50: 0.02 µg/mL (≈ 0.0605 µM)
[8]
  EC50: 0.013 µg/mL (≈ 0.0393 µM)
[9]
  EC50: 0.013 µg/mL (≈ 0.0393 µM)
[10]
  pIC50: 5.70
[11]
  EC50: 0.022 µg/mL (≈ 0.0666 µM)

## C=C(C)[C@@H]1CC[C@]2(C(=O)O)CC[C@]3(C)[C@H](CC[C@@H]4[C@@]5(C)CC[C@H](OC(=O)/C=C/C)C(C)(C)[C@@H]5CC[C@]43C)[C@@H]12
[12]
  pIC50: 4.32
[13]
  pEC50: 4.72

## CCCc1cccc2c1ccc1c3occ(C)c3c(=O)oc21
[14]
  EC50: 0.3 µg/mL (≈ 1.03 µM)
[15]
  EC50: 1.2 µg/mL (≈ 4.1 µM)
[16]
  EC50: > 10 µg/mL
[17]
  EC50: 0.1 µg/mL (≈ 0.342 µM)

## Cc1ccc2c(=O)cc(-c3cccc(F)c3)[nH]c2n1
[6]
  pIC50: 6.28

## O=C1c2ccccc2C(=O)c2c(NCC3CO3)ccc(NCC3CO3)c21 (configuration not stated)
[18]
  MIC: 0.13 µg/mL (≈ 0.371 µM)
[19]
  MIC: 0.13 µg/mL (≈ 0.371 µM)
[20]
  MIC: 250 µg/mL (≈ 714 µM)
[21]
  MIC: 0.13 µg/mL (≈ 0.371 µM)
[22]
  MIC: 0.13 µg/mL (≈ 0.371 µM)
[23]
  MIC: 63 µg/mL (≈ 180 µM)

## COc1ccc2c(CNCCCCCCO)cc3cc4c(cc3c2c1)OCO4
[24]
  pIC50: 6.89

## C=C(C)[C@@H]1CC[C@]2(C(=O)O)CC[C@]3(C)[C@H](CC[C@@H]4[C@@]5(C)CC[C@H](OC(=O)CC(C)(C)C(=O)O)C(C)(C)[C@@H]5CC[C@]43C)[C@@H]12 [BEVIRIMAT]
[25]
  selectivity ratio: 20000
[13]
  pEC50: 9.46

## CC1(C)Oc2ccc3c(=O)cc(-c4ccccc4)oc3c2[C@@H](OC(=O)C23CCC(C)(C(=O)O2)C3(C)C)[C@H]1OC(=O)C12CCC(C)(C(=O)O1)C2(C)C (some centres not stated)
[1]
  selectivity ratio: 71
[2]
  pEC50: 6.77
[3]
  pIC50: 4.91
[4]
  selectivity ratio: 277
[5]
  pEC50: 6.89

## C=C(C)[C@@H]1CC[C@]2(C(=O)O)CC[C@]3(C)[C@H](CC[C@@H]4[C@@]5(C)CC[C@H](OC(=O)CCC(=O)O)C(C)(C)[C@@H]5CC[C@]43C)[C@@H]12
[25]
  selectivity ratio: 4
[12]
  pIC50: 4.80
[13]
  pEC50: 5.40

## Cc1cnc2[nH]c(-c3cccc(F)c3)cc(=O)c2c1
[6]
  pIC50: 6.20

## CCCC1=C(OC)C(CCC)(CCC)C(=O)/C(=C(O)\C=C\c2ccc(Br)cc2)C1=O
[26]
  EC50: 0.9 µg/mL (≈ 1.89 µM)
[27]
  EC50: 0.9 µg/mL (≈ 1.89 µM)
[28]
  EC50: 0.9 µg/mL (≈ 1.89 µM)
[29]
  EC50: 0.9 µg/mL (≈ 1.89 µM)
[30]
  EC50: 0.9 µg/mL (≈ 1.89 µM)
[31]
  EC50: 0.9 µg/mL (≈ 1.89 µM)
[32]
  EC50: 0.9 µg/mL (≈ 1.89 µM)
[33]
  EC50: 0.9 µg/mL (≈ 1.89 µM)

## C=C1C(=O)O[C@@H]2C[C@@H](C)[C@H]3C=CC(=O)[C@@]3(C)[C@@H](OC(=O)CCCC(=O)O[C@H]3[C@H]4C(=C)C(=O)O[C@@H]4C[C@H](C)[C@H]4C=CC(=O)[C@]43C)[C@@H]12
[34]
  T/C: 195%

## CCc1cccc2c1ccc1c3occ(C)c3c(=O)oc21
[35]
  EC50: 0.45 µg/mL (≈ 1.62 µM)
[36]
  EC50: 0.18 µg/mL (≈ 0.647 µM)
[37]
  EC50: 0.1 µg/mL (≈ 0.359 µM)

## C[C@@H]1C[C@H]2OC(=O)[C@@H](C)[C@H]2[C@H](O)[C@]2(C)C(=O)CC[C@@H]12
[38]
  ED50: inactive

## COC1=C(C)C(O)=C(C(=O)/C=C/c2ccccc2)C(=O)C1(C)C [DESMOSDUMOTIN C]
[26]
  EC50: 3 µg/mL (≈ 9.6 µM)
[27]
  EC50: 3 µg/mL (≈ 9.6 µM)
[28]
  EC50: 3 µg/mL (≈ 9.6 µM)
[29]
  EC50: 3 µg/mL (≈ 9.6 µM)
[30]
  EC50: 3 µg/mL (≈ 9.6 µM)
[31]
  EC50: 3 µg/mL (≈ 9.6 µM)
[32]
  EC50: 3 µg/mL (≈ 9.6 µM)
[33]
  EC50: 3 µg/mL (≈ 9.6 µM)

## COc1ccc2c(c1)c(=O)ccc1cc(OC)c(OC)c(OC)c12
[7]
  EC50: 0.029 µg/mL (≈ 0.0889 µM)
[8]
  EC50: 0.016 µg/mL (≈ 0.049 µM)
[9]
  EC50: 0.024 µg/mL (≈ 0.0735 µM)
[10]
  pIC50: 6.00
[11]
  EC50: 0.042 µg/mL (≈ 0.129 µM)
